Non-standard residues stand in square brackets, D forms with d. Residues, ends and D or L forms follow the SMILES beside them. *: point of attachment. Sta = CC(C)C[C@H](N)[C@@H](O)CC(=O)O; Isovaleryl = CC(C)CC(=O)*; Cbz = O=C(OCc1ccccc1)*; CH2F = FC*
Columns and labels:
[1] = system: PMΦ (peritoneal macrophages); assay: Macrophage chemotaxis assay (modified Boyden chamber); type: cell-based, mouse; details: for Macrophage chemotactic activity: migration over 4 h, compared with C140 and RANTES 25 ng/ml; for Concentration of maximal macrophage migration: tested 1 pM-100 nM
Procedure: PMθ (0.5×10^6) were allowed to migrate towards chemoattractant (Chemerin140 or Chemerin peptides) in the bottom well of a modified Boyden chamber over 4 h. Filters were fixed in 4% formalin, then migrated cell nuclei were stained with DAPI and visualised. Serum free media (SFM) were used as a negative control and the macrophage chemoattractant RANTES (25 ng/ml; 3 nM) as a positive control. The graphs indicate mean Migration Index (Chemoattractant % threshold area/SFM % threshold area)±SEM for each treatment group (n=5-6). p<0.001 ***; p<0.01 **; p<0.05 * relative to SFM treated wells.
PMθ were recruited following a 4 day peritoneal stimulation with BioGEL beads. Peritoneal cavities of male C57B16/J mice were lavaged with 5 ml PBS-2 mM EDTA. Cells were centrifuged and resuspended in RPMI supplemented with 0.5% BSA and 25 mM Hepes. Cells (0.5×10^6) were allowed to migrate towards chemoattractant (C140, C17m or C17m+C140) in the bottom well over 4 h. Filters were fixed in 4% formalin, then nuclei were stained with DAPI and visualised. Serum free media was used as a negative control (−/−). Cells were preincubated with Pertussis toxin (PTX) for 30 mins before the chemotaxis assay. The bar graphs in FIG. 11 show the mean Migration Index±SEM for each treatment group. Each bar represents at least triplicate wells and at least 3 pictures taken per treatment. p<0.001 ***; p<0.01 **; p<0.05 * relative to SFM treated wells unless otherwise stated.
Cell migration was assessed by use of transwell membranes (ChemoTX, 6-mm diameter, 8-μm pore size). Briefly, BioGEL-elicited cells were harvested and placed on transwell membranes (250 000 cells/membrane in RPMI supplemented with 25 mM Hepes and 0.1% bovine serum albumin. Cells were allowed to migrate toward Chemerin peptides (1 pM-100 nM) for 4 h. Signal transduction via G protein-coupled receptors was blocked by preincubating cells with pertussis toxin (PTX, 200 ng/ml, Sigma-Aldrich) for 30 mins before placing cells on transwell membranes. Migrated cells on the underside of membranes were fixed (3% formaldehyde) and stained with DAPI. Migration was quantified as total pixel count of DAPI stained nuclei under the confocal microscope (2 photos/membrane and a minimum of 3 replicate wells per treatment). Images were analyzed using Metamorph Offline software to determine percentage threshold areas (TA) occupied by migrated cells. Migration indices were obtained by dividing treatment TA by serum-free media TA. For secondary chemotaxis assays ChemoTx 3-mm diameter, 8-μm pore membranes were used with 50 000 cells/membrane.

[2] = system: Murine peritoneal macrophages (PMΦ); assay: Macrophage activation assay: LPS/IFNγ-induced inflammatory cytokine expression (ELISA, Luminex); type: cell-based, mouse; details: for Percentage inhibition of LPS/IFNγ-induced inflammatory cytokine expression: RANTES / Percentage inhibition of LPS/IFNγ-induced inflammatory cytokine expression: TNFα: PMΦ, pre-treatment 1 h (0.1 pM-100 nM), then LPS 100 ng/ml + IFNγ 20 ng/ml 15 h, optimal dose (1 pM Chemerin and C15, 100 pM C13 and C19); for Anti-inflammatory activity in the MΦ activation assay: peptides 0.1 pM-100 nM; for Optimal dose (maximal response) for suppression of LPS/IFNγ-induced cytokine expression: macrophage activation assay; for Effect of protease inhibitor on chemerin-mediated suppression of MΦ activation (FIG. 1F): chemerin 1 pM + protease inhibitor 1 h, then LPS/IFNγ 15 h
Procedure: Murine peritoneal macrophages (PMθ, also referred to as PMΦ herein) were cultured under various conditions: Untreated; LPS (100 ng/ml) and IFNγ (20 ng/ml) for 15 h; Chemerin (1 pM) pre-treatment for 1 h then LPS/IFNγ for 15 h; Leupeptin (protease inhibitor; 15 mg/ml) and Chemerin (1 pM) for 1 h then LPS/IFNγ for 15 h; or Dexamethasone (positive control; 1 μM pre-treatment for 1 h then LPS/IFNγ for 15 h.
Murine PMθ were cultured under various conditions: Untreated, LPS (100 ng/ml) and IFNγ (20 ng/ml) for 15 h; Chemerin peptides (at a concentration of 1 pM-100 nM) pre-treatment for 1 h then LPS/IFNγ for 15 h. […] Experiments were performed with triplicate determinations for each treatment. Representative data from five independent experiments employing cells from different groups of C57B16/J mice are shown. p<0.01 **; p<0.001 *** relative to LPS/IFNγ treated samples.
With reference to Table 1, anti-inflammatory activity of chemerin-derived peptides—Murine PMΦ were cultured as described for FIG. 1B and were challenged with LPS (100 ng/ml) and IFNγ (20 ng/ml) for 15 h with/without pre-treatment with peptides (0.1 pM-100 nM) for 1 h. […] Peptide sequences are: C11 (P144-A154; […]), C13 (P144-S156; […]), C15 (A140-A154; […]), C19 (A138-S156; […]; Seq ID: No. 37), N19 (E23-K41; […] Seq ID No: 44) and M20 (K86-K105; […] Seq ID No. 45). Control peptides: scrambled C15 (C15-S; […]) and mutant C15 (C15-M; […]; F148A & F153A). Data represent mean percentage inhibition of cytokine production by classically activated macrophages from 4-8 independent experiments as determined by ELISA and Luminex assay.
1 ml 2% BioGEL polyacrylamide beads in sterile Phosphate-Buffered Saline (PBS) were injected intraperitoneally (ip) into C57B1/6J mice. Four days after ip BioGEL administration, mice were sacrificed by the CO, method according to Home Office guidelines. Peritoneal cavities were flushed with 10 ml sterile PBS-2 mM EDTA to harvest BioGEL-evoked/elicited cellular infiltrate. Suspensions of harvested cells were centrifuged at 1000×g for 5 mins at 4° C. The supernatants were discarded and cell pellets were resuspended in 6 mls OptiMEM medium supplemented with 2 mM Glutamine, 50 units/ml Penicillin and 50 μg/ml Streptomycin. Macrophages were quantified following incubation on ice for 5-10 mins with Turk's solution using a haemocytometer. Cell suspensions (2 mls; 1.5×10^6/well) were plated in six-well tissue culture plates (35 mm diameter: Costar, UK) and allowed to adhere for 2 hours at 37° C. in a humidified atmosphere containing 5% CO2, to isolate macrophage populations by adherence. This gave greater than 95% purity assessed by cytospinning, staining of cells with Methylene Blue and Eosin and counting based on cellular morphology. Nonadherent cells (mainly granulocytes) were discarded and wells were washed three times with sterile PBS to remove loosely adherent or dead cells. […] To determine PTX sensitivity and dependency upon proteolysis, cells were pre-incubated with PTX (200 ng/ml) or Leupeptin (15 μg/ml). Additional cells were treated with peptides alone. Supernatants were harvested and stored at −20° C. until use in Enzyme-Linked Immunosorbance Assays (ELISAs) and Luminex assays. Cells were lysed to allow extraction of total RNA by the TRIZOL method. Lysates were stored at −80° C. until RNA extraction following manufacturer's guidelines (Qiagen, RNeasy Mini Prep Kit).
RANTES, Tumour necrosis factor (TNFα) and CCL9 concentrations in cell supernatants were assessed by ELISA. IL-12 p40, IL-10, IL-1β, TNFα, MCP-1 (Monocyte chemoattractant protein-1) and IL-6 levels were determined by Luminex multiplex bead assay (Bio-rad 6 plex assay). Lower limits of detection for ELISAs were 0.1-0.5 ng/ml and 10-50 pg/ml for Luminex assays.

[3] = quoted in the discussion; cited from earlier work
[4] = C13m 100 pM, C15m 1 pM, C17m 1 pM, pre-treatment 1 h then LPS/IFNγ 15 h

Molecule	Macrophage chemotactic activity [1]	Percentage inhibition of LPS/IFNγ-induced inflammatory cytokine expression: RANTES [2] [%]	Percentage inhibition of LPS/IFNγ-induced inflammatory cytokine expression: TNFα [2] [%]	Anti-inflammatory activity in the MΦ activation assay [2]	Effect of protease inhibitor on chemerin-mediated suppression of MΦ activation (FIG. 1F) [2]	other results
FSRALRTK (listed as Mus sp.) [C8, 8 aa peptide removed during prochemerin cleavage, reference compound]	incapable of inducing MΦ migration	0	0	no detectable anti-inflammatory activity		
PHGYFLPGQFAFS (listed as Mus sp.) [C13]	little chemotactic activity	32	10			Concentration of maximal macrophage migration [1]: 10 nM; Suppression of LPS/IFNγ-induced RANTES secretion (FIG. 2B) [2, 4]: 32%; Suppression of LPS/IFNγ-induced TNFα expression (FIG. 2B) [2, 4]: 10%; Optimal dose (maximal response) for suppression of LPS/IFNγ-induced cytokine expression [2]: 100 pM
CCCC[C@@H](C=O)NC(=O)[C@H](CC(C)C)NC(=O)OCc1ccccc1 [calpeptin, reference compound]					dependent upon calpains	
RALRTK (listed as Mus sp.) [C6, 6 aa peptide removed during prochemerin cleavage, reference compound]	incapable of inducing MΦ migration	0	0	no detectable anti-inflammatory activity		
CC(=O)N[C@@H](CC(C)C)C(=O)N[C@@H](CC(C)C)C(=O)N[C@H](C=O)CCCNC(=N)N [Leupeptin, reference compound]					abolished its anti-inflammatory effects	
TNFα						Potency of comparison mediators [3]: 10^−11 M
KPECTIKPNGRRRKCLACIK (listed as Mus sp.) [M20, midstream peptide K86-K105]		0	0	devoid of anti-inflammatory activity		
PHGYFLPGQFA (listed as Mus sp.) [C11]	little chemotactic activity	0	0	devoid of anti-inflammatory activity		Concentration of maximal macrophage migration [1]: 10 nM
CC(C)CC(=O)N[C@H](C(=O)N[C@H](C(=O)N[C@@H](CC(C)C)[C@@H](O)CC(=O)N[C@@H](C)C(=O)N[C@@H](CC(C)C)[C@@H](O)CC(=O)O)C(C)C)C(C)C [Pepstatin A, reference compound] (Isovaleryl-VV[Sta]A[Sta]-OH)					exerted no effect	
O=C(NC(Cc1ccccc1)C(=O)NC(Cc1ccccc1)C(=O)CF)OCc1ccccc1 (stereo not drawn) [Z-FF-FMK, reference compound] (Cbz-Phe-Phe-CH2F; configuration not given here)					independent of cathepsin L	
CC(C)C[C@H](NC(=O)[C@H](Cc1ccccc1)NC(=O)OCc1ccccc1)C(=O)C=O [Z-FL-COCHO, reference compound]					dependent upon calpains and cathepsin S	
ELSETQRRSLQVALEEFHK (listed as Mus sp.) [N19, N-terminal peptide E23-K41]		0	0	devoid of anti-inflammatory activity		
CCCCC/C=C\C[C@@H](O)/C=C/C=C/C=C\[C@@H](O)CCCC(=O)O [LTB4, leukotriene B4]						Potency of comparison mediators [3]: 10^−11 M
AQAGEDPHGYFLPGQFAFS (listed as Mus sp.) [C19]	no chemotactic activity	41	21			Optimal dose (maximal response) for suppression of LPS/IFNγ-induced cytokine expression [2]: 100 pM
Cl.NCCc1ccc(S(=O)(=O)F)cc1 [Pefabloc, reference compound]					exerted no effect	
CSCC[C@H](NC=O)C(=O)N[C@@H](CC(C)C)C(=O)N[C@@H](Cc1ccccc1)C(=O)O [fMLP, formyl-Methionyl-Leucyl-Phenylalanine]						Potency of comparison mediators [3]: 10^−11 M
